Reference: the supplement of paper PMC9938120

Key:
Assay in all cases: drug sensitivity score (DSS3, normalised partial AUC of % inhibition dose-response) (DSS (score)); higher = more sensitive (stronger inhibition of viability); extreme values may be limits of the assay
FMOC02_1 = patient-derived low-grade serous ovarian cancer cells; details: 72 h; library: FO5A; assay format: 2D, 384-well, CellTiter-Glo
Outline: (§1)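 On 384-well flat clear-bottom plates carrying compounds at five concentrations across a 10,000-fold range, patient-derived ovarian cancer cells below passage 10 were incubated for 72 h at 37 °C with 5% CO2. CellTiter-Glo readout of viability was processed in Breeze. A higher drug sensitivity score, defined as the partial area under the percent-inhibition dose-response curve divided by the log of the upper asymptote, means greater sensitivity.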

FMOC02_2 = patient-derived low-grade serous ovarian cancer cells; details: 72 h; library: FO5A; assay format: 2D, 384-well, CellTiter-Glo
Outline: as §1

FMOC02_3 = patient-derived low-grade serous ovarian cancer cells; details: 72 h; library: FO5A; assay format: 2D, 384-well, CellTiter-Glo
Outline: as §1

FMOC03 = patient-derived mucinous ovarian cancer cells; details: 72 h; library: FO5A; assay format: 2D, 384-well, CellTiter-Glo
Outline: as §1

FMOC04 = patient-derived high-grade serous ovarian cancer cells; details: 72 h; library: FO5A; assay format: 2D, 384-well, CellTiter-Glo
Outline: as §1

FMOC06 = patient-derived mucinous ovarian cancer cells; details: 72 h; library: FO5A; assay format: 2D, 384-well, CellTiter-Glo
Outline: as §1

FMOC09 = patient-derived high-grade serous ovarian cancer cells; details: 72 h; library: FO5A; assay format: 2D, 384-well, CellTiter-Glo
Outline: as §1

FMOC11 = patient-derived high-grade serous ovarian cancer cells; details: 72 h; library: FO5A; assay format: 2D, 384-well, CellTiter-Glo
Outline: as §1

FMOC14 = patient-derived high-grade serous ovarian cancer cells; details: 72 h; library: FO5A; assay format: 2D, 384-well, CellTiter-Glo
Outline: as §1

FMOC17 = patient-derived low-grade serous ovarian cancer cells; details: 72 h; library: FO5A; assay format: 2D, 384-well, CellTiter-Glo
Outline: as §1

FMOC22 = patient-derived mucinous ovarian cancer cells; details: 72 h; library: FO5A; assay format: 2D, 384-well, CellTiter-Glo
Outline: as §1

FMOC24 = patient-derived high-grade serous ovarian cancer cells; details: 72 h; library: FO5A; assay format: 2D, 384-well, CellTiter-Glo
Outline: as §1

FMOC25_1 = patient-derived low-grade serous ovarian cancer cells; details: 72 h; library: FO4B; assay format: 2D, 384-well, CellTiter-Glo
Outline: as §1

FMOC25_2 = patient-derived low-grade serous ovarian cancer cells; details: 72 h; library: FO5A; assay format: 2D, 384-well, CellTiter-Glo
Outline: as §1

FMOC27 = patient-derived low-grade serous ovarian cancer cells; details: 72 h; library: FO5A; assay format: 2D, 384-well, CellTiter-Glo
Outline: as §1

FMOC28 = patient-derived low-grade serous ovarian cancer cells; details: 72 h; library: FO5A; assay format: 2D, 384-well, CellTiter-Glo
Outline: as §1

| SMILES | drug sensitivity score (FMOC02_1) | drug sensitivity score (FMOC02_2) | drug sensitivity score (FMOC02_3) | drug sensitivity score (FMOC03) | drug sensitivity score (FMOC04) | drug sensitivity score (FMOC06) | drug sensitivity score (FMOC09) | drug sensitivity score (FMOC11) | drug sensitivity score (FMOC14) | drug sensitivity score (FMOC17) | drug sensitivity score (FMOC22) | drug sensitivity score (FMOC24) | drug sensitivity score (FMOC25_1) | drug sensitivity score (FMOC25_2) | drug sensitivity score (FMOC27) | drug sensitivity score (FMOC28) |
| --- | --- | --- | --- | --- | --- | --- | --- | --- | --- | --- | --- | --- | --- | --- | --- | --- |
| Cn1cc(-c2cnn3c(N)c(Br)c([C@@H]4CCCNC4)nc23)cn1 [MK-8776] | 2 | 0 | 1.5 | 0 | 2.45 | 0 | 0 | 2.4 | 0.9 | 0.6 | 0 | 0.3 | 1.4 | 2.8 | 0 | 2.5 |
| O=C1NC(=O)[C@@H](c2cn3c4c(cccc24)CCC3)[C@@H]1c1c[nH]c2ccccc12 [Tivantinib] | 4.7 | 3.7 | 5 | 3.1 | 5.1 | 2.7 | 4.3 | 2.8 | 0 | 4.9 | 2.5 | 0.65 | 4.2 | 2.1 | 2.5 | 3.3 |
| CC(=O)N(O)CCCCCNC(=O)CCC(=O)N(O)CCCCCNC(=O)CCC(=O)N(O)CCCCCN [Deferoxamine] | 0 | 0 | 0.2 | 4.1 | 0 | 1.4 | 1.4 | 4.5 | 1.2 | 0 | 1.1 | 0 | 1.1 | 0 | 0 | 0 |
| CNc1nc(Nc2cn(C(C)(C)C#N)nc2C)ncc1C(F)(F)F [GNE-0877] | 0 | 0 | 0 | 0 | 0 | 0 | 0 | 0 | 0 | 0 | 0 | 0 | 0 | 0 | 0 | 0 |
| C[C@]12CC[C@@H]3c4ccc(O)cc4C[C@@H](CCCCCCCCC[S+]([O-])CCCC(F)(F)C(F)(F)F)[C@H]3[C@@H]1CC[C@@H]2O (stereo partly drawn) [Fulvestrant] | 0 | 0 | 0 | 0 | 0 | 0 | 0 | 0 | 0 | 0 | 0 | 0 | 0 | 0 | 0 | 0 |
| C=CC(=O)Nc1cccc(Nc2nc(Nc3ccc(OCCOC)cc3)ncc2F)c1 [Spebrutinib] | 3.1 | 2.9 | 5.7 | 0 | 0 | 0 | 1.5 | 0.9 | 0 | 2.3 | 0 | 0 | 0 | 2.9 | 2.2 | 1.6 |
| O=C(O)c1ccc(CN2CCC(CN[C@@H]3C[C@H]3c3ccccc3)CC2)cc1 | 0.4 | 0 | 1.6 | 0 | 0.4 | 0 | 0 | 0 | 0 | 0 | 0 | 0.9 | 0 | 0 | 0 | 0 |
| Nc1nc(NC2CC2)cc(-c2cccc(Cl)c2Cl)n1 [TH588] | 3.4 | 5.2 | 5.4 | 0.4 | 1.15 | 0 | 1.2 | 2.2 | 0.2 | 3 | 2.3 | 0.2 | 2.1 | 2.2 | 2.3 | 5.7 |
| CS(=O)(=O)c1ccc(-c2cnc(N)c(C(=O)Nc3ccccc3)n2)cc1 [VE-821] | 3.3 | 0.8 | 0.2 | 0 | 0 | 0 | 0 | 0 | 1.9 | 0 | 0 | 3.65 | 0.6 | 2.2 | 1.3 | 0 |
| O=S(=O)(c1cccc2c(O)nccc12)N1CCCNCC1 [Hydroxyfasudil] | 0 | 0 | 0 | 0 | 0 | 0 | 0 | 0 | 0 | 0 | 0 | 1.25 | 0 | 0 | 0 | 0 |
| CC(C)n1cnc2c(NCCc3ccc(O)cc3)nc(-c3csc4ccccc34)nc21 [StemRegenin 1] | 4.2 | 6 | 4.7 | 4.8 | 1.95 | 4.5 | 0.3 | 1 | 0.6 | 6.8 | 2.7 | 6.15 | 1.6 | 6.1 | 6.9 | 2.9 |
| Cn1cnc2c(F)c(Nc3ccc(Br)cc3F)c(C(=O)NOCCO)cc21 [Binimetinib] | 5.5 | 7.1 | 7.1 | 4.8 | 0 | 7.6 | 4.2 | 0 | 0 | 6 | 3.6 | 0 | 6.6 | 3.2 | 2.2 | 1.6 |
| CNC(=O)c1ccc2cc([C@@]3(O)CCn4cncc43)ccc2c1 [Orteronel] | 0 | 0 | 0 | 0 | 0 | 0 | 0 | 0 | 0 | 0 | 0 | 0 | 0 | 1.4 | 0 | 0.2 |
